The text below walks through data of ChEMBL document CHEMBL4842385, “Indirubin Derivatives as Dual Inhibitors Targeting Cyclin-Dependent Kinase and Histone Deacetylase for Treating Cancer” (J Med Chem, 2021).

Where only a bound is given, the exact number is not on record here.

Histone deacetylase 2, sequence (Q92769 whole entry): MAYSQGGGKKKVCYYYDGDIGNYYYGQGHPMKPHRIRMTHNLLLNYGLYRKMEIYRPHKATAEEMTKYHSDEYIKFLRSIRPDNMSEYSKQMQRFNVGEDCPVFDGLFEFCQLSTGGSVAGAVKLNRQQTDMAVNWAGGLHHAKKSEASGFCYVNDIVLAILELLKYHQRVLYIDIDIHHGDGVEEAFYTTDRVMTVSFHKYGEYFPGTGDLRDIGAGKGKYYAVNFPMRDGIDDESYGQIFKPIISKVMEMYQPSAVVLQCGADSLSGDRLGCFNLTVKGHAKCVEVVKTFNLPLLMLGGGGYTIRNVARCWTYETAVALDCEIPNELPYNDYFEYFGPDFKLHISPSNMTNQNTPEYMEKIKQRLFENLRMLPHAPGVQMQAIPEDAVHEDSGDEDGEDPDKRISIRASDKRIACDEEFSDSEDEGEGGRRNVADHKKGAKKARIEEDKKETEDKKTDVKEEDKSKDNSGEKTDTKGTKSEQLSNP

The target of one assay is CDK2/Cyclin A2 (Homo sapiens, UniProt P24941). As to the kind of experiment: Inhibition of full length human CDK2 (1 to 298 end residues)/N-terminal GST-tagged CyclinA2 (1 to 432 residues) expressed in baculovirus expression system preincubated for 10 mins followed by substrate and ATP addition by mobility shift assay.
Details: not given
As usually defined, the IC50 is the concentration needed to halve the response being measured. As to `C#CCN1C(=O)/C(=C2\Nc3ccccc3\C2=N/OCCCC(=O)NO)c2ccccc21`, the IC50 was over 1 µM.
Still for that read-out and setting: as for `O=C(CCCO/N=C1/C(=C2/C(=O)Nc3ccccc32)Nc2ccccc21)NO`, the figure is 0.0609 µM.
With `O=C(O)CCCO/N=C1/C(=C2/C(=O)Nc3ccccc32)Nc2ccccc21`, the IC50 turned out to be 0.119 µM.

In the next assay the target is Histone deacetylase 4 (Homo sapiens, UniProt P56524). In words: Inhibition of HDAC4 (unknown origin) measured after 30 mins by fluorescence microplate reader assay.
Histone deacetylase 4, sequence (P56524 whole entry): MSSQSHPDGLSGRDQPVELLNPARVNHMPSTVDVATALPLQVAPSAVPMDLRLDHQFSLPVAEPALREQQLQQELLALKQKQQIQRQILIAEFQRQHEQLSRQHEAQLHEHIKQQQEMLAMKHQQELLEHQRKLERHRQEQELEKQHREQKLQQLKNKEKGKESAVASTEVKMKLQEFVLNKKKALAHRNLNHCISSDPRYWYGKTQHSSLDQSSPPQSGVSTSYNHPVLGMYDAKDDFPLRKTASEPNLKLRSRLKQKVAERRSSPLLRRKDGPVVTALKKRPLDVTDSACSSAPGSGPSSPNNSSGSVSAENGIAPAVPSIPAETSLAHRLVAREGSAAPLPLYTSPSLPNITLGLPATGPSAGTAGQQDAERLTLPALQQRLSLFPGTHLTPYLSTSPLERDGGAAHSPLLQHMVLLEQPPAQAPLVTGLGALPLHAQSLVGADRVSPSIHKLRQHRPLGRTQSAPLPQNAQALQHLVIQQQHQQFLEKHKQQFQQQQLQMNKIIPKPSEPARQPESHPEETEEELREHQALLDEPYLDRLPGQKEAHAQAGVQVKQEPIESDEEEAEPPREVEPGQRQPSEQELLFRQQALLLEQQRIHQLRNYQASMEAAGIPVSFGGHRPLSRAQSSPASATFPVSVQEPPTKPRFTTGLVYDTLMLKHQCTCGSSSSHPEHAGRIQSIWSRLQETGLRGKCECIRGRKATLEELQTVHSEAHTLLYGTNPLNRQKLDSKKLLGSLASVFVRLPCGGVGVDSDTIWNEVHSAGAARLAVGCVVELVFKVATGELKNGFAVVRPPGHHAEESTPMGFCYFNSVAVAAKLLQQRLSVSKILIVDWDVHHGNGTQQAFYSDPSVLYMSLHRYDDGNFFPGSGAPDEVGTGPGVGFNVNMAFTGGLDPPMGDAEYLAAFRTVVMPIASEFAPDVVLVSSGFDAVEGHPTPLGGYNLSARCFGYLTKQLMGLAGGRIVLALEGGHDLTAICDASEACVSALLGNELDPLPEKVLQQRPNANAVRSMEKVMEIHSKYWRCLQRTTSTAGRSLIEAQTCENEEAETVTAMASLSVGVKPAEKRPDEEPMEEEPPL
Details: not given
In turn, `C#CCN1C(=O)/C(=C2\Nc3ccccc3\C2=N/OCCCC(=O)NO)c2ccccc21` displayed a half-maximal inhibitory concentration (IC50) of over 100 µM.
Same read-out and setting: as for `O=C(CCCO/N=C1/C(=C2/C(=O)Nc3ccccc32)Nc2ccccc21)NO`, the figure is over 5 µM.
On the same count and under the same terms, as for `O=C(O)CCCO/N=C1/C(=C2/C(=O)Nc3ccccc32)Nc2ccccc21`, the figure is over 5 µM.

Another assay addresses CDK6/cyclin D3 (Homo sapiens) (UniProt P30281+Q00534). Conditions: dose 100.0 nM, time 10.0 min.
In general, inhibition refers to the share of the control response that was lost under treatment. A high value points to a strong effect. Take `C#CCN1C(=O)/C(=C2\Nc3ccccc3\C2=N/OCCCC(=O)NO)c2ccccc21`: the inhibition amounted to 0.8%.
Compound `O=C(CCCO/N=C1/C(=C2/C(=O)Nc3ccccc32)Nc2ccccc21)NO` registered an inhibition of 76.6%.
`O=C(O)CCCO/N=C1/C(=C2/C(=O)Nc3ccccc32)Nc2ccccc21` returned an inhibition of 41.3%.

For another assay, the target named is Histone deacetylase (Homo sapiens) (UniProt Q13547+O15379+Q9UBN7+Q92769+Q9UQL6+Q8WUI4+Q9BY41+Q96DB2+P56524+Q9UKV0+Q969S8). Conditions: HeLa, Nucleus, dose 1000.0 nM, time 1.0 hrs.
For `C#CCN1C(=O)/C(=C2\Nc3ccccc3\C2=N/OCCCC(=O)NO)c2ccccc21`, the inhibition is 23%.
For the compound `O=C(CCCO/N=C1/C(=C2/C(=O)Nc3ccccc32)Nc2ccccc21)NO`, the inhibition worked out at 51%.
On the same count and under the same terms, as for `O=C(O)CCCO/N=C1/C(=C2/C(=O)Nc3ccccc32)Nc2ccccc21`, the figure is 0.1%.

In a further assay the target is Histone deacetylase 3/Nuclear receptor corepressor 2 (HDAC3/NCoR2) (Homo sapiens, UniProt O15379). In words: Inhibition of C-terminal His-tagged recombinant human HDAC3 (1 to 428 residues)/N-terminal GST-tagged recombinant human NCoR2 (395 to 489 residues) co-expressed in baculovirus infected Sf9 cells measured after 30 mins by fluorescence microplate reader assay.
Histone deacetylase 3/Nuclear receptor corepressor 2 (HDAC3/NCoR2), sequence (O15379 whole entry, the tested form may be a part): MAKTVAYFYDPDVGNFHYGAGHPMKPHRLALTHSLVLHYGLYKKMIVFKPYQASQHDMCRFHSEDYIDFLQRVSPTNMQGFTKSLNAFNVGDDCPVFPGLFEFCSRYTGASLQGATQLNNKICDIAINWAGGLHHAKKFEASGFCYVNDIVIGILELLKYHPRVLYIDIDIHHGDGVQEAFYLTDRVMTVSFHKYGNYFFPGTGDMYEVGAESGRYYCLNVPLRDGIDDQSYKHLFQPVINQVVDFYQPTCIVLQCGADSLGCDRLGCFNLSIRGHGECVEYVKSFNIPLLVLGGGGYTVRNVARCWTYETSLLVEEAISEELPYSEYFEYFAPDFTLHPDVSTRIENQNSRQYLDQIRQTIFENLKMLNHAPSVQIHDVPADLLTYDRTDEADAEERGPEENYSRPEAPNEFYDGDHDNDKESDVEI
Histone deacetylase 3/Nuclear receptor corepressor 2 (HDAC3/NCoR2), sequence (Q9Y618 whole entry, further chain, the tested form may be a part): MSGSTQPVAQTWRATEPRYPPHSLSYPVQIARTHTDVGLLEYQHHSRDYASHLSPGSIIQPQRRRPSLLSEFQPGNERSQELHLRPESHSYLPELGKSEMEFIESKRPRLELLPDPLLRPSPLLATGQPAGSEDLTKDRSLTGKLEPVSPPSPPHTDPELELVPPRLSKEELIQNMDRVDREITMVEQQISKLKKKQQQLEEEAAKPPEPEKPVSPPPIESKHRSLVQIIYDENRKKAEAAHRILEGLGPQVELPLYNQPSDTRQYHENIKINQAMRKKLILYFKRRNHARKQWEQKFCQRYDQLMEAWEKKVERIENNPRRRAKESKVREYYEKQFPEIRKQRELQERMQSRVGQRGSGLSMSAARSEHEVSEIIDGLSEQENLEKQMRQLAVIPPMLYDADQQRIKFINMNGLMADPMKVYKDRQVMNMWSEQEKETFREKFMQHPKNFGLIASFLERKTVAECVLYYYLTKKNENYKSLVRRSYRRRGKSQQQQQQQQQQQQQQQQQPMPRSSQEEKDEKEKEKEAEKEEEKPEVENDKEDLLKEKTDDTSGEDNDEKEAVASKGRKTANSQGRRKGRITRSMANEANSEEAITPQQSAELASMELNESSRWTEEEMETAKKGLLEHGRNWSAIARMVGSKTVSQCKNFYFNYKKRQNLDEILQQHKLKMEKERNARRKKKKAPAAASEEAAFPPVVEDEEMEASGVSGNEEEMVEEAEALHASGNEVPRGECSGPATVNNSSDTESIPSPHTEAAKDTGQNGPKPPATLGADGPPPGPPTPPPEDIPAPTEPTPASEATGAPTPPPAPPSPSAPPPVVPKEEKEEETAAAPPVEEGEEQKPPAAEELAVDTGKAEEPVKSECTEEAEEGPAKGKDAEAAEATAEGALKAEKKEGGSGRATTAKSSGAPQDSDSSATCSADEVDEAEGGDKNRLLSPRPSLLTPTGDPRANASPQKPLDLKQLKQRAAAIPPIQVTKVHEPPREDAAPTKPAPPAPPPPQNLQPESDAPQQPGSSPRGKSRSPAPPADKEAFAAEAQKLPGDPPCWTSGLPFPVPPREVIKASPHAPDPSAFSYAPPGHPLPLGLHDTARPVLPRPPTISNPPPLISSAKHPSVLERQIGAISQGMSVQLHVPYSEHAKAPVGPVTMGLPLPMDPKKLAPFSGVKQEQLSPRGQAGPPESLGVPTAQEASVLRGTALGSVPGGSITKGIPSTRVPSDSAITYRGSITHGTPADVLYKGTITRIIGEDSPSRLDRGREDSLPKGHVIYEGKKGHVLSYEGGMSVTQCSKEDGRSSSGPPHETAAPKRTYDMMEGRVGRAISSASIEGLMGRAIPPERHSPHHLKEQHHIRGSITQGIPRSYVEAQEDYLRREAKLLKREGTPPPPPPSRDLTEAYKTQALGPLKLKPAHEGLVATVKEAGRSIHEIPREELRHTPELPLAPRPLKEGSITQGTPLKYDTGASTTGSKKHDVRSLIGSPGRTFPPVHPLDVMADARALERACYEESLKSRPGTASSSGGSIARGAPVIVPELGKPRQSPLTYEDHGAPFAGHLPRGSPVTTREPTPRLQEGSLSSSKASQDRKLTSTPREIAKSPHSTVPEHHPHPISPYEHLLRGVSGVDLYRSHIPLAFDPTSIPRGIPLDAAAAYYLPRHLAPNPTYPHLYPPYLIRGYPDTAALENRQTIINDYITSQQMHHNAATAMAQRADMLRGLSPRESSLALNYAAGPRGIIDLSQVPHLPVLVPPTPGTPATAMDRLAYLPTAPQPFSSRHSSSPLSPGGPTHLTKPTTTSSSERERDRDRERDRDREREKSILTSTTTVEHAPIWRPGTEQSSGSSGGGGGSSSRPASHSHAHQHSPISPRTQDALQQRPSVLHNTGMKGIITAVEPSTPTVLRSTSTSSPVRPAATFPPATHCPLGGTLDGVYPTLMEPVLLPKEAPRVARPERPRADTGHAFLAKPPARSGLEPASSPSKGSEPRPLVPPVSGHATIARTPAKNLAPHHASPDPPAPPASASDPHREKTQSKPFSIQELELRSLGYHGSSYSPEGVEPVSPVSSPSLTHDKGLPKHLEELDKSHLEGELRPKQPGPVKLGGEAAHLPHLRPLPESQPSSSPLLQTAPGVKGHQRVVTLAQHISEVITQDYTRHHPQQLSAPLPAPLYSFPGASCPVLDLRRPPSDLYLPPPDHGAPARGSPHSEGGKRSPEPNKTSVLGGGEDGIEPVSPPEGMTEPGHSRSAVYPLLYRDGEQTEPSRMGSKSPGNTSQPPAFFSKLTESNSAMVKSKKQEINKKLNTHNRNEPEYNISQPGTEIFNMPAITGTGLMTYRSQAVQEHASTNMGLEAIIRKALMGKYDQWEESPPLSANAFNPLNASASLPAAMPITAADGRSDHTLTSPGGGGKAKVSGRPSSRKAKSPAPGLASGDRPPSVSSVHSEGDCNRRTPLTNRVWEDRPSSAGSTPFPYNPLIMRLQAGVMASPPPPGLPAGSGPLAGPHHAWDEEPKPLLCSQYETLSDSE
Details: not given
For the compound `C#CCN1C(=O)/C(=C2\Nc3ccccc3\C2=N/OCCCC(=O)NO)c2ccccc21`, the 50% inhibitory concentration (IC50) was over 100 µM.
The same measure, in the same setting: as for `O=C(CCCO/N=C1/C(=C2/C(=O)Nc3ccccc32)Nc2ccccc21)NO`, the figure is over 5 µM.
Same read-out and setting: as for `O=C(O)CCCO/N=C1/C(=C2/C(=O)Nc3ccccc32)Nc2ccccc21`, the figure is over 5 µM.

For the next assay, the target named is T1, Histone deacetylase 7 (Homo sapiens, UniProt Q8WUI4).
T1 sequence (Q8WUI4 whole entry): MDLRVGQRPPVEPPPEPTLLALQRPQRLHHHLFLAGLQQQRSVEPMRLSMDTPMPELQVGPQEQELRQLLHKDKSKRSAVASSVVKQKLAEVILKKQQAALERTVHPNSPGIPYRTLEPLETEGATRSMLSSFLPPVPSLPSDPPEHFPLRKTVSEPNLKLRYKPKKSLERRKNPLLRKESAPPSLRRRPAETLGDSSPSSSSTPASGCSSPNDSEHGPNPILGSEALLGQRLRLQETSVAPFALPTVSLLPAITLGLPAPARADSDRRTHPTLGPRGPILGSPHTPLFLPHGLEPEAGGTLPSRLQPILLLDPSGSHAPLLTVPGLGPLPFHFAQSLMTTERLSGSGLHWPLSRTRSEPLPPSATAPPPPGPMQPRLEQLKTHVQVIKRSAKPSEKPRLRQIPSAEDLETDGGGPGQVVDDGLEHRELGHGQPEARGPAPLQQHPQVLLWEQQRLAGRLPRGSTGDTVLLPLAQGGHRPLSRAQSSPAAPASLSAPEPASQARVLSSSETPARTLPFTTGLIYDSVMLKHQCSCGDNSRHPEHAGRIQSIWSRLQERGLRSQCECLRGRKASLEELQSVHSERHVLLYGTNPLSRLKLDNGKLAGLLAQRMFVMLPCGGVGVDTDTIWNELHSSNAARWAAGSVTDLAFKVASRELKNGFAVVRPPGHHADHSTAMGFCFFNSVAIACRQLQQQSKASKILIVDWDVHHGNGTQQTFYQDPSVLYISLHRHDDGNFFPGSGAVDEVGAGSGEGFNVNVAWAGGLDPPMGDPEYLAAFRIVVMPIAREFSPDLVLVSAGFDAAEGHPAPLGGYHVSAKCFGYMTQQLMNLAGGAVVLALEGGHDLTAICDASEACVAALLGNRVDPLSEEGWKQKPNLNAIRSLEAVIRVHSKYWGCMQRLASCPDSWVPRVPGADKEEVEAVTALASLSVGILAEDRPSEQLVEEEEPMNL
In words: Inhibition of HDAC7 (unknown origin) measured after 30 mins by fluorescence microplate reader assay.
Details: not given
As for `C#CCN1C(=O)/C(=C2\Nc3ccccc3\C2=N/OCCCC(=O)NO)c2ccccc21`, the IC50 is over 5 µM.
In turn, `O=C(CCCO/N=C1/C(=C2/C(=O)Nc3ccccc32)Nc2ccccc21)NO` came in with an IC50 of over 5 µM.
On to `O=C(O)CCCO/N=C1/C(=C2/C(=O)Nc3ccccc32)Nc2ccccc21`, for which the IC50 is over 5 µM.

A further assay addresses Histone deacetylase 2 (Homo sapiens, UniProt Q92769). As to the kind of experiment: Inhibition of HDAC2 (unknown origin) measured after 30 mins by fluorescence microplate reader assay.
Details: not given
`C#CCN1C(=O)/C(=C2\Nc3ccccc3\C2=N/OCCCC(=O)NO)c2ccccc21` displayed an IC50 of over 100 µM.
On the same count and under the same terms, as for `O=C(CCCO/N=C1/C(=C2/C(=O)Nc3ccccc32)Nc2ccccc21)NO`, the figure is over 5 µM.
The same measure, in the same setting: as for `O=C(O)CCCO/N=C1/C(=C2/C(=O)Nc3ccccc32)Nc2ccccc21`, the figure is over 5 µM.

For a further assay, the target named is T2, Histone deacetylase 11 (Homo sapiens, UniProt Q96DB2).
T2 sequence (Q96DB2 whole entry): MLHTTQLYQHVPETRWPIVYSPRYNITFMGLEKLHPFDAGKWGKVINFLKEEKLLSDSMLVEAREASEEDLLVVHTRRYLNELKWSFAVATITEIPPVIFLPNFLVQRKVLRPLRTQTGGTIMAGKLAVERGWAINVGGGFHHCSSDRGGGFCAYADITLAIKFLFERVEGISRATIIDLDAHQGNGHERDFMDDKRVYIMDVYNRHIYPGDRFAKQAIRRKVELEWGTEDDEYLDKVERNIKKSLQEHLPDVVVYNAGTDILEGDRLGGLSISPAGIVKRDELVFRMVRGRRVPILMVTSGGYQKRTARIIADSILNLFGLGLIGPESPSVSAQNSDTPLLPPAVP
As to the kind of experiment: Inhibition of recombinant human HDAC11 measured after 30 mins by fluorescence microplate reader assay.
Details: not given
For the compound `C#CCN1C(=O)/C(=C2\Nc3ccccc3\C2=N/OCCCC(=O)NO)c2ccccc21`, the IC50 is over 5 µM.
Still for that read-out and setting: as for `O=C(CCCO/N=C1/C(=C2/C(=O)Nc3ccccc32)Nc2ccccc21)NO`, the figure is over 5 µM.
Same read-out and setting: as for `O=C(O)CCCO/N=C1/C(=C2/C(=O)Nc3ccccc32)Nc2ccccc21`, the figure is over 5 µM.

The target of a further assay is CDK6/cyclin D3 (Homo sapiens, UniProt Q00534). As to the kind of experiment: Inhibition of full length human CDK6 (1 to 326 end residues)/N-terminal GST-fusion tagged CyclinD3 (1 to 292 residues) expressed in baculovirus expression system preincubated for 10 mins followed by substrate and ATP addition by mobility shift assay.
Details: not given
For `C#CCN1C(=O)/C(=C2\Nc3ccccc3\C2=N/OCCCC(=O)NO)c2ccccc21`, the IC50 is over 1 µM.
The same measure, in the same setting: as for `O=C(CCCO/N=C1/C(=C2/C(=O)Nc3ccccc32)Nc2ccccc21)NO`, the figure is 0.0272 µM; as for `O=C(O)CCCO/N=C1/C(=C2/C(=O)Nc3ccccc32)Nc2ccccc21`, 0.0682 µM.

Another assay deals with CDK2/Cyclin A2 (Homo sapiens) (UniProt P24941+P20248). Conditions: dose 100.0 nM, time 10.0 min.
Take `C#CCN1C(=O)/C(=C2\Nc3ccccc3\C2=N/OCCCC(=O)NO)c2ccccc21`: the inhibition is 4.5%.
Compound `O=C(CCCO/N=C1/C(=C2/C(=O)Nc3ccccc32)Nc2ccccc21)NO` returned an inhibition of 66.8%.
Same read-out and setting: as for `O=C(O)CCCO/N=C1/C(=C2/C(=O)Nc3ccccc32)Nc2ccccc21`, the figure is 34.9%.

Another assay addresses T3, Histone deacetylase 8 (Homo sapiens, UniProt Q9BY41).
T3 sequence (Q9BY41 whole entry): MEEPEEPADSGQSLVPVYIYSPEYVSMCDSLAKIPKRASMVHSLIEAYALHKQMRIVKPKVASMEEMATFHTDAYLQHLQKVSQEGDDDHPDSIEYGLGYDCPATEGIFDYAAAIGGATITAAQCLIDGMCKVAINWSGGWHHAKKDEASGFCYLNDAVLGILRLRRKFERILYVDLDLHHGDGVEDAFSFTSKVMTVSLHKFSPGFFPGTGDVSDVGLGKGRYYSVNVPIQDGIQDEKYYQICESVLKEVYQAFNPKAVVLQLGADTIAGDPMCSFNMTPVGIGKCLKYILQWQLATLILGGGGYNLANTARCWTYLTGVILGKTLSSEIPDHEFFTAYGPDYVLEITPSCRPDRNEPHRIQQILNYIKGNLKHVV
In words: Inhibition of HDAC8 (unknown origin) measured after 30 mins by fluorescence microplate reader assay.
Details: not given
`C#CCN1C(=O)/C(=C2\Nc3ccccc3\C2=N/OCCCC(=O)NO)c2ccccc21`: the IC50 is over 5 µM.
The same measure, in the same setting: as for `O=C(CCCO/N=C1/C(=C2/C(=O)Nc3ccccc32)Nc2ccccc21)NO`, the figure is over 5 µM; as for `O=C(O)CCCO/N=C1/C(=C2/C(=O)Nc3ccccc32)Nc2ccccc21`, over 5 µM.

The target of the next assay is Histone deacetylase 1 (Homo sapiens, UniProt Q13547). As to the kind of experiment: Inhibition of HDAC1 (unknown origin) measured after 30 mins by fluorescence microplate reader assay.
Histone deacetylase 1, sequence (Q13547 whole entry): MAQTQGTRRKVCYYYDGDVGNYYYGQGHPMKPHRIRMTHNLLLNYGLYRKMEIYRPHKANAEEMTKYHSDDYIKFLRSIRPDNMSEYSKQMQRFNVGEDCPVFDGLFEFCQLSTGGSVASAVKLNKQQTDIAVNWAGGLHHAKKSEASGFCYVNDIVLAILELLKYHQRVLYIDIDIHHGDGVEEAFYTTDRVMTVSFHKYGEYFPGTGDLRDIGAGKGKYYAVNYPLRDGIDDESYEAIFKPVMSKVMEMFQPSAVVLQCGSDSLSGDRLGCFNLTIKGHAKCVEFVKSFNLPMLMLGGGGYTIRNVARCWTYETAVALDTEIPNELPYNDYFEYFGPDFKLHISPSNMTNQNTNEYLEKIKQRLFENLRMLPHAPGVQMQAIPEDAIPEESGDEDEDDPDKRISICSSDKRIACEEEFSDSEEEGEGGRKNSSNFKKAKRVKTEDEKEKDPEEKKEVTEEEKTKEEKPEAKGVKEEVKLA
Details: not given
Compound `C#CCN1C(=O)/C(=C2\Nc3ccccc3\C2=N/OCCCC(=O)NO)c2ccccc21` came in with an IC50 of over 100 µM.
Same read-out and setting: as for `O=C(CCCO/N=C1/C(=C2/C(=O)Nc3ccccc32)Nc2ccccc21)NO`, the figure is over 5 µM.
The same measure, in the same setting: as for `O=C(O)CCCO/N=C1/C(=C2/C(=O)Nc3ccccc32)Nc2ccccc21`, the figure is over 5 µM.
